According to patent US20230390268A1 (priority 2022, published 2023):
“Also recorded” adds a separate entry of the source. Read-outs that look alike come from different tables or passages of the source.

Columns and labels:
[1] = tested on: SARS-CoV-2; assay type: cell-based
[2] = tested on: IL6; assay: IL6 transcript levels by qPCR in SARS-CoV-2 infected Calu3 cells; assay type: cell-based, human; conditions: Calu3 cells infected with SARS-CoV-2
[3] = tested on: TNFα; assay: TNFα transcript levels by qPCR in SARS-CoV-2 infected Calu3 cells; assay type: cell-based, human; conditions: Calu3 cells infected with SARS-CoV-2
[4] = tested on: IL8; assay: IL8 transcript levels by qPCR in SARS-CoV-2 infected Calu3 cells; assay type: cell-based, human; conditions: Calu3 cells infected with SARS-CoV-2
[5] = tested on: Vesicular stomatitis virus (VSV); assay type: cell-based
[6] = tested on: Herpes Simplex Virus (HSV); assay type: cell-based
[7] = tested on: Vaccinia virus (VacV); assay type: cell-based
[8] = tested on: HIV-1 NL4-3 GFP; assay type: cell-based
[9] = tested on: ASK1/p38MAPK; assay type: cell-based, human
[10] = tested on: THF cells; assay: Cell viability MTT assay; conditions: 50 μM, 24 hr, compared with DMSO
[11] = tested on: Calu3 cells; assay type: cell-based, human; conditions: 1 MOI of VSV, Selonsertib 50 μM, 24 hr
[12] = tested on: JNK; assay type: cell-based, human
[13] = tested on: mTORC1; assay type: cell-based, human; conditions: Calu3 and THF cells infected with VSV, Selonsertib 50 μM, 24 hr, versus DMSO+VSV
[14] = tested on: autophagy; assay type: cell-based, human; conditions: Calu3 and THF cells infected with VSV, Selonsertib 50 μM, 24 hr
[15] = tested on: SARS-CoV-2; assay type: cell-based; remark: listed apart in the source
[16] = tested on: VSV; assay type: cell-based
[17] = tested on: SARS-CoV-2; assay type: cell-based; remark: listed apart in the source
[18] = tested on: SARS-CoV-2/SB3; set-up: species or system Syrian Hamster; conditions: in vivo
[19] = tested on: VSV; assay type: cell-based; remark: listed apart in the source
[20] = tested on: HSV; assay: HSV-GFP replication in CHL-11 hamster cell line; assay type: cell-based; conditions: CHL-11 cells, HSV-GFP MOI of 1, 0.1 or 0.01, Selonsertib 25 or 50 μM, 24 h

Row | SMILES | SARS-CoV-2 replication [1] | levels of IL6 [2] | levels of TNFα [3] | levels of IL8 [4] | GFP-intensity of VSV [5] | duration of effect on viral replication after aspirating drugs [5] | GFP-intensity of HSV [6] | GFP-intensity of VacV [7] | HIV-1-GFP replication [8] | cell viability [10] | VSV replication [5] | also measured
1 | O=C(Nc1cccc(-c2nncn2C2CC2)c1)c1cc(-n2cnc(C3CC3)c2)ccn1 [GS-444217] | drastically reduces | diminish | diminish | diminish | significantly abolish | 24 h | significantly abolish | significantly abolish | abrogates replication | healthy and safe; also recorded: no difference |  | duration of effect on phosphorylation of ASK1/p38MAPK after aspirating drugs ([9]; pretreatment 24 hours, drugs aspirated prior VSV infection, Calu3 cells): 24 h
2 | Cc1cc(F)c(C(=O)Nc2cccc(-c3nncn3C(C)C)n2)cc1-n1cnc(C2CC2)c1 [Selonsertib] | drastically reduces | diminish | diminish | diminish | significantly abolish | 24 h | significantly abolish | significantly abolish | abrogates replication | healthy and safe; also recorded: no difference | gradually decreased | time after adding drug at which VSV replication starts to weaken [5]: 2 h; duration of effect on phosphorylation of ASK1/p38MAPK after aspirating drugs [9]: 24 h; time after adding drug at which p38MAPK phosphorylation starts to weaken [9]: 2 h; changes in cell morphology caused by VSV replication [11]: remarkably alleviates; also recorded: relieved; JNK phosphorylation [12]: reduced; Phosphorylation levels of p70 (S6K1) [13]: not changed; autophagy marker, LC3II [14]: not affected; SARS-CoV-2 nucleoprotein in infected HAP1 KO cells treated or not [15]: no significant difference; VSV infection in HAP1 KO cells [16]: still able to swipe the leftover of VSV infection; level of SARS-CoV2 nucleocapsid [17]: remarkably increased; percentage of weight loss ([18]; hamster): the most; IHC staining against SARS-CoV2 nucleocapsid in the hamster lung tissue [18]: dominated a spatial area of the lung tissue; SARS-CoV-2 replication in hamster tissue [18]: augmented; antiviral effect against VSV in hamster cell line [19]: antiviral properties; antiviral effect against HSV in hamster cell line [20]: antiviral properties
3 | Cc1ccc(-n2nc(C(C)(C)C)cc2NC(=O)Nc2ccc(OCCN3CCOCC3)c3ccccc23)cc1 [BIRB, Doramapimod] | no antiviral properties | diminish | diminish | diminish |  |  |  |  |  |  | no obvious effect; also recorded: no noticeable effect | 
